Data taken from US20110306606A1, “NOVEL 2,6-SUBSTITUTED-3-NITROPYRIDINE DERIVATIVE, METHOD FOR PREPARING SAME, AND PHARMACEUTICAL COMPOSITION INCLUDING SAME” (priority 2008, published 2011).

The molecules below were run on Osteoblasts (Calvarial cells) (assay: Cytotoxicity test (MTT)). Settings: 1 μM compound, 72 hours, in comparison with vehicle control.

Row | Structure (SMILES) | Cell viability (%) Calvarial cell [%]
1 | O=[N+]([O-])c1ccc(N2CCC(O)CC2)nc1Nc1ccc(N2CCCC(CO)C2)c(F)c1 (centres unmarked) [Compound 279, 2-{[3-fluoro-4-(3-hydroxymethylpiperidino)]phenylamino}-6-(4-hydroxypiperidino)-3-nitropyridine] | 102
2 | CC1=NCCN1c1ccc([N+](=O)[O-])c(Nc2ccc(N3CCCC(CO)C3)c(F)c2)n1 (centres unmarked) [Compound 280, 2-{[3-fluoro-4-(3-hydroxymethylpiperidino)]phenylamino}-6-[(2-methyl-4,5-dihydro)imidazol-1-yl]-3-nitropyridine] | 103
3 | O=[N+]([O-])c1ccc(N2CCNCC2)nc1Nc1ccc(N2CCCC(CO)C2)c(F)c1 (centres unmarked) [Compound 281, 2-{[3-fluoro-4-(3-hydroxymethylpiperidino)]phenylamino}-6-(piperazin-1-yl)-3-nitropyridine] | 107
4 | CN1CCN(c2ccc([N+](=O)[O-])c(Nc3ccc(N4CCCC(CO)C4)c(F)c3)n2)CC1 (centres unmarked) [Compound 282, 2-{[3-fluoro-4-(3-hydroxymethylpiperidino)]phenylamino}-6-(4-methylpiperazin-1-yl)-3-nitropyridine] | 107
5 | O=[N+]([O-])c1ccc(N2CCOCC2)nc1Nc1ccc(N2CCCC(CO)C2)c(F)c1 (centres unmarked) [Compound 283, 2-{[3-fluoro-4-(3-hydroxymethylpiperidino)]phenylamino}-6-morpholino-3-nitropyridine] | 103
6 | NC1CCN(c2ccc([N+](=O)[O-])c(Nc3ccc(N4CCCC(CO)C4)c(F)c3)n2)CC1 (centres unmarked) [Compound 284, 2-{[3-fluoro-4-(3-hydroxymethylpiperidino)]phenylamino}-6-(4-aminopiperidino)-3-nitropyridine] | 100
7 | O=[N+]([O-])c1ccc(NCc2cccnc2)nc1Nc1ccc(N2CCCC(CO)C2)c(F)c1 (centres unmarked) [Compound 285, 2-{[3-fluoro-4-(3-hydroxymethylpiperidino)]phenylamino}-6-[(3-pyridyl)methylamino]-3-nitropyridine] | 106
8 | O=[N+]([O-])c1ccc(NCc2ccncc2)nc1Nc1ccc(N2CCCC(CO)C2)c(F)c1 (centres unmarked) [Compound 286, 2-{[3-fluoro-4-(3-hydroxymethylpiperidino)]phenylamino}-6-[(4-pyridyl)methylamino]-3-nitropyridine] | 123
9 | O=[N+]([O-])c1ccc(NCCc2ccccn2)nc1Nc1ccc(N2CCCC(CO)C2)c(F)c1 (centres unmarked) [Compound 287, 2-{[3-fluoro-4-(3-hydroxymethylpiperidino)]phenylamino}-6-[2-(2-pyridyl)ethylamino]-3-nitropyridine] | 103
10 | O=[N+]([O-])c1ccc(NC2CC2)nc1Nc1ccc(N2CCCC(CO)C2)c(F)c1 (centres unmarked) [Compound 288, 2-{[3-fluoro-4-(3-hydroxymethylpiperidino)]phenylamino}-6-(cyclopropylamino)-3-nitropyridine] | 103
11 | CNc1ccc([N+](=O)[O-])c(Nc2ccc(N3CCC(C(N)=O)CC3)c(F)c2)n1 [Compound 289, 2-{[3-fluoro-4-(4-carbamoylpiperidino)]phenylamino}-6-(methylamino)-3-nitropyridine] | 115
12 | CC(C)Nc1ccc([N+](=O)[O-])c(Nc2ccc(N3CCC(C(N)=O)CC3)c(F)c2)n1 [Compound 290, 2-{[3-fluoro-4-(4-carbamoylpiperidino)]phenylamino}-6-(isopropylamino)-3-nitropyridine] | 119
13 | CC(C)CNc1ccc([N+](=O)[O-])c(Nc2ccc(N3CCC(C(N)=O)CC3)c(F)c2)n1 [Compound 291, 2-{[3-fluoro-4-(4-carbamoylpiperidino)]phenylamino}-6-(isobutylamino)-3-nitropyridine] | 87
14 | CC(C)(C)Nc1ccc([N+](=O)[O-])c(Nc2ccc(N3CCC(C(N)=O)CC3)c(F)c2)n1 [Compound 292, 2-{[3-fluoro-4-(4-carbamoylpiperidino)]phenylamino}-6-(t-butylamino)-3-nitropyridine] | 102
15 | NC(=O)C1CCN(c2ccc(Nc3nc(N4CCC(O)CC4)ccc3[N+](=O)[O-])cc2F)CC1 [Compound 293, 2-{[3-fluoro-4-(4-carbamoylpiperidino)]phenylamino}-6-(4-hydroxypiperidino)-3-nitropyridine] | 104
16 | NC(=O)C1CCN(c2ccc(Nc3nc(N4CCNCC4)ccc3[N+](=O)[O-])cc2F)CC1 [Compound 294, 2-{[3-fluoro-4-(4-carbamoylpiperidino)]phenylamino}-6-(piperazin-1-yl)-3-nitropyridine] | 95
17 | CN1CCN(c2ccc([N+](=O)[O-])c(Nc3ccc(N4CCC(C(N)=O)CC4)c(F)c3)n2)CC1 [Compound 295, 2-{[3-fluoro-4-(4-carbamoylpiperidino)]phenylamino}-6-(4-methylpiperazin-1-yl)-3-nitropyridine] | 106
18 | NC(=O)C1CCN(c2ccc(Nc3nc(N4CCOCC4)ccc3[N+](=O)[O-])cc2F)CC1 [Compound 296, 2-{[3-fluoro-4-(4-carbamoylpiperidino)]phenylamino}-6-morpholino-3-nitropyridine] | 97
19 | NC(=O)C1CCN(c2ccc(Nc3nc(N4CCC(N)CC4)ccc3[N+](=O)[O-])cc2F)CC1 [Compound 297, 2-{[3-fluoro-4-(4-carbamoylpiperidino)]phenylamino}-6-(4-aminopiperidino)-3-nitropyridine] | 107
20 | NC(=O)C1CCN(c2ccc(Nc3nc(NCc4ccncc4)ccc3[N+](=O)[O-])cc2F)CC1 [Compound 298, 2-{[3-fluoro-4-(4-carbamoylpiperidino)]phenylamino}-6-[(4-pyridyl)methylamino]-3-nitropyridine] | 108
21 | NC(=O)C1CCN(c2ccc(Nc3nc(NCCN4CCOCC4)ccc3[N+](=O)[O-])cc2F)CC1 [Compound 300, 2-{[3-fluoro-4-(4-carbamoylpiperidino)]phenylamino}-6-[2-(morpholin-1-yl)ethylamino]-3-nitropyridine] | 118
22 | CNc1ccc([N+](=O)[O-])c(Nc2ccc(N3CCCC(C(N)=O)C3)c(F)c2)n1 (centres unmarked) [Compound 301, 2-{[3-fluoro-4-(3-carbamoylpiperidino)]phenylamino}-6-(methylamino)-3-nitropyridine] | 95
23 | CC(C)Nc1ccc([N+](=O)[O-])c(Nc2ccc(N3CCCC(C(N)=O)C3)c(F)c2)n1 (centres unmarked) [Compound 302, 2-{[3-fluoro-4-(3-carbamoylpiperidino)]phenylamino}-6-(isopropylamino)-3-nitropyridine] | 103
24 | CC(C)CNc1ccc([N+](=O)[O-])c(Nc2ccc(N3CCCC(C(N)=O)C3)c(F)c2)n1 (centres unmarked) [Compound 303, 2-{[3-fluoro-4-(3-carbamoylpiperidino)]phenylamino}-6-(isobutylamino)-3-nitropyridine] | 102
25 | CC(C)(C)Nc1ccc([N+](=O)[O-])c(Nc2ccc(N3CCCC(C(N)=O)C3)c(F)c2)n1 (centres unmarked) [Compound 304, 2-{[3-fluoro-4-(3-carbamoylpiperidino)]phenylamino}-6-(t-butylamino)-3-nitropyridine] | 103
26 | NC(=O)C1CCCN(c2ccc(Nc3nc(N4CCC(O)CC4)ccc3[N+](=O)[O-])cc2F)C1 (centres unmarked) [Compound 305] | 107
